Source: PMC12860872, “Preclinical evaluation of DOTAGA.Glu.(FAPI)2 and DO3A.Glu.(FAPI)2 as theranostics with human dosimetry extrapolation to lutetium-177 and terbium-161 analogs” (European Journal of Nuclear Medicine and Molecular Imaging, 2025)

System: PC3-mice
Test: Dosimetry in mice (nTACs, effective half-lives, TIAC/g)
Assay type: in vivo, mouse
Conditions: for Effective half life: Tumor: nTACs
Procedure: (n = 3). The %I.A./g of tissue was calculated for liver, lungs, stomach, spleen, pancreas, kidneys, intestines, bone, muscle, salivary glands, heart wall, blood, tumor. To estimate the absolute activity in each source organ, the individual %I.A./g values were multiplied by the corresponding organ mass derived from the standard 25 g MOBY mouse phantom, yielding in the normalized source organ activities (nA) per time point and animal.
Following Cicone et al., the nA values for source organs were corrected to account for the fraction of administered activity sequestered by the tumor, as described in more detail in the dosimetry section of the supplemental data. According to the MIRD formalism, time-integrated activity coefficients (TIACs) were derived by integrating the normalized time-activity curves (nTACs), which were fitted using the bi-exponential functions. TIACs were calculated by fitting the nTACs with the bi-exponential functions and performing time integration in MATLAB. Additionally, mass-normalized TIACs (TIAC/g) were derived using organ masses from the standard 25 g MOBY mouse phantom (Supplemental data).
Biodistribution kinetics for [177Lu]Lu-DOTAGA.Glu.(FAPI)2 and [177Lu]Lu-DO3A.Glu.(FAPI)2 were assessed by ex vivo quantification of the accumulated radioactivity in source organs using a calibrated gamma counter at 4, 24, 48, 72, and 96 hours p.i. (n=3). The percentage of injected activity per gram of tissue (%I.A./g) was calculated, as described above, for a comprehensive panel of tissues, including liver, lungs, stomach, spleen, pancreas, kidneys, intestines, bone, muscle, salivary glands, heart wall, blood, and tumor. To estimate the absolute activity in each source organ, the individual %I.A./g values was multiplied by the corresponding organ mass derived from the standard 25 g MOBY mouse phantom, which provides high-resolution anatomical reference data for the murine models (28). […] The actual activity measurements were referred to the gamma counter measurement time (i.e. no physical decay correction to the administration time was applied). For each organ and time point, the mean nA was subsequently calculated across the three animals.
As outlined by Cicone et al., (1) the nA values for source organs were corrected to account for the fraction of administered activity sequestered by the tumor by redistributing the tumor nA (nAtumor) to organs according to the formula: […]
Where nAWB is the nA measured in the whole body. This adjustment was implemented to facilitate the extrapolation of absorbed dose data from mice to humans, considering that the tumor "sink effect" - prominent in murine models - is generally negligible in human subjects. In radiopharmaceutical dosimetry using tumor-bearing mice, the “tumor sink” effect refers to the phenomenon where large or highly avid tumors absorb a significant portion of the injected radiotracer, reducing its availability to normal organs. This can lead to artificially low uptake measurements in healthy tissues, which may not reflect what would occur in humans with smaller tumors or lower tumor burden. To correct for this, dosimetry calculations often include a "tumor sink correction" that adjusts normal organ uptake values to account for the radiotracer sequestered by the tumor, ensuring more accurate and clinically relevant dose estimates.
According to the MIRD formalism, for each source organ, time-integrated activity coefficients (TIACs) were derived by integrating the normalized time-activity curves (nTACs), which were fitted using the bi-exponential functions. The integration of the fitted nTACs was extended to infinity for organs in which the effective half-life of the slower bi-exponential component (tslow) was shorter than the physical half-life of lutetium-177 (tslow < tphys). […]

[1] = PC3-mice, nTACs corrected for tumor sink

SMILES | TIAC/g Bones (Mouse) | TIAC/g Heart contents (Mouse) | TIAC/g Kidneys (Mouse) | TIAC/g Liver (Mouse) | TIAC/g Pancreas (Mouse) | TIAC/g Rest of the body (Mouse) | TIAC/g Salivary glands (Mouse) | TIAC/g Tumor (Mouse) | Effective half life: Tumor (PC3-mice) | Effective half life: Bones [1] | Effective half life: Heart content [1] | Effective half life: Kidney [1] | Effective half life: Liver [1] | Effective half life: Lung [1] | Effective half life: Pancreas [1] | Effective half life: Salivary glands [1] | Effective half life: Small Intestine [1] | Liver TIAC/g, times higher than for [177Lu]Lu-DO3A.Glu.(FAPI)2 (Mouse)
N#C[C@@H]1CC(F)(F)CN1C(=O)CNC(=O)c1ccnc2ccc(OCCCCNC(=O)CC[C@H](NC(=O)CN3CCN(CC(=O)[O-])CCN(CC(=O)[O-])CCN(CC(=O)[O-])CC3)C(=O)NCCCCOc3ccc4nccc(C(=O)NCC(=O)N5CC(F)(F)C[C@H]5C#N)c4c3)cc12.[177Lu+3] [[^177Lu]Lu-DO3A.Glu.(FAPI)2] | 3.82 ± 0.12 h/g | 0.12 ± 0.003 h/g | 0.20 ± 0.01 h/g | 3.47 ± 0.14 h/g | 0.20 ± 0.01 h/g | 10.77 ± 0.32 h/g | 0.25 ± 0.02 h/g | 1.61 ± 0.2 h/g | 51 ± 12.6 h | 23.3 ± 1.4 h | 12.8 ± 0.4 h | 22.3 ± 7.1 h | 70.4 ± 2.9 h | 18.3 ± 4.4 h | 14.1 ± 3.2 h | 11.8 ± 5.9 h | 16.2 ± 4.5 h | 
N#C[C@@H]1CC(F)(F)CN1C(=O)CNC(=O)c1ccnc2ccc(OCCCCNC(=O)CC[C@H](NC(=O)CCC(C(=O)O)N3CCN(CC(=O)[O-])CCN(CC(=O)[O-])CCN(CC(=O)[O-])CC3)C(=O)NCCCCOc3ccc4nccc(C(=O)NCC(=O)N5CC(F)(F)C[C@H]5C#N)c4c3)cc12.[177Lu+3] (stereo partly shown) [[^177Lu]Lu-DOTAGA.Glu.(FAPI)2] | 6.65 ± 0.39 h/g | 0.11 ± 0.005 h/g | 0.39 ± 0.02 h/g | 9.65 ± 0.82 h/g | 0.29 ± 0.01 h/g | 10.75 ± 0.68 h/g | 0.36 ± 0.01 h/g | 1.19 ± 0.16 h/g | 39.1 ± 1.1 h | 30.9 ± 0.5 h | 12.5 ± 0.1 h | 50.1 ± 3.1 h |  | 19.9 ± 0.6 h | 40 ± 14.2 h | 52.1 ± 14.9 h | 25.4 ± 0.9 h | 2.7 times
